# Results: patent US9932349B2 (priority 2000, dated 2018)
# “And” between values parts separate entries of the source, which are not always exact repeats. Identical values can stand only once. Like-named read-outs stand apart in the source and are kept apart here.
# What was measured:
# δ opioid receptor = molecular target: T1, δ opioid receptor (Cavia porcellus, UniProt A0A286XTF2); assay: biochemical; assay type: binding, guinea pig
# T1 construct: determined in guinea pig brain cells; from tissue; host or cells: guinea pig brain
# T1 sequence (A0A286XTF2 1-366): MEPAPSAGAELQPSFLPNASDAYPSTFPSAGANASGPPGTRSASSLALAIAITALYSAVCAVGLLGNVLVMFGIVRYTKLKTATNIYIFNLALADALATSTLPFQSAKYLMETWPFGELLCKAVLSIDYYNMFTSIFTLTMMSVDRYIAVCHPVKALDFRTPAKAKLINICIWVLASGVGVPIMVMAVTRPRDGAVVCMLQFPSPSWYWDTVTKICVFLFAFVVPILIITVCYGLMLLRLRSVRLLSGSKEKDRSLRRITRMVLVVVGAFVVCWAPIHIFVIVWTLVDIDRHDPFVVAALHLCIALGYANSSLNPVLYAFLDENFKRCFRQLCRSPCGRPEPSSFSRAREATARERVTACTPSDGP
# κ opioid receptor = molecular target: T2, κ opioid receptor (Cavia porcellus, UniProt P41144); assay: biochemical; assay type: binding, guinea pig
# T2 construct: determined in guinea pig brain cells; from tissue; host or cells: guinea pig brain
# T2 sequence (P41144 whole entry): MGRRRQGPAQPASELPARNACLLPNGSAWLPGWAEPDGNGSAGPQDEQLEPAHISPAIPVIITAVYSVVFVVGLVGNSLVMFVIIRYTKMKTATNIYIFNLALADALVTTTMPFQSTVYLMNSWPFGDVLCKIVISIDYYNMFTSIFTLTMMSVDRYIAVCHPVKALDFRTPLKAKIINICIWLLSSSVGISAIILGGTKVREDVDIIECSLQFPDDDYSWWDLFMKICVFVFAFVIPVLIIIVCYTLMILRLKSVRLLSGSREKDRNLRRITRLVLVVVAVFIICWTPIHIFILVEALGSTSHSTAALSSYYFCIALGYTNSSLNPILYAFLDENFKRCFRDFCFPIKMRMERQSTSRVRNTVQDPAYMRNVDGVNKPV
# human μ opioid receptor = molecular target: T3, human μ opioid receptor (Homo sapiens, UniProt P35372); assay: biochemical; assay type: binding
# T3 construct: expressed in transfected cells; host or cells: Chinese hamster ovary (CHO) cells
# T3 sequence (P35372 whole entry): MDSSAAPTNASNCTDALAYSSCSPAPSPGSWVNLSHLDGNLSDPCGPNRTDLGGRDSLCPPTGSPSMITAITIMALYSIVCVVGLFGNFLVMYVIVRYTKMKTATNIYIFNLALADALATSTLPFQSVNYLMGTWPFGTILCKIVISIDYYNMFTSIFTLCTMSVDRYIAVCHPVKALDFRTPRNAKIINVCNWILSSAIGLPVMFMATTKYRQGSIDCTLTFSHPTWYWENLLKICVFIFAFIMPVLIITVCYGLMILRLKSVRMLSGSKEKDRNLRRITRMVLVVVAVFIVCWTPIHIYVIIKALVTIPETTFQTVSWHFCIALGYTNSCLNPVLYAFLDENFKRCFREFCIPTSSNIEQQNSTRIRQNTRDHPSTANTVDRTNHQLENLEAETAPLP
# human δ opioid receptor = molecular target: T4, human δ opioid receptor (Homo sapiens, UniProt P41143); assay: binding to cloned human receptor in CHO cell membranes, [3H]Naltrindole
# T4 construct: expressed in transfected cells; host or cells: Chinese hamster ovary (CHO) cells
# T4 sequence (P41143 whole entry): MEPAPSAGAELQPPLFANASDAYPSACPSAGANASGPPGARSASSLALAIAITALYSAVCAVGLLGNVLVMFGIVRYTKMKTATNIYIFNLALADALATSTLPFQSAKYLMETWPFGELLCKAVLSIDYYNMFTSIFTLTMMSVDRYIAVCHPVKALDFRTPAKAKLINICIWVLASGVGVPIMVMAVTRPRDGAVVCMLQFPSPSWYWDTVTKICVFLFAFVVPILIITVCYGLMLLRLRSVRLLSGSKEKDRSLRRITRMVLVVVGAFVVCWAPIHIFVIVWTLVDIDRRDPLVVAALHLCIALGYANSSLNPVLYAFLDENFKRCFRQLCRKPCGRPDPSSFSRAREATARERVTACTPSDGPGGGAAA
# Method: The affinities of the compounds of the invention were determined in guinea pig brain cells by the method described in Wentland et al. Biorgan. Med. Chem. Lett. 9. […] CHO cell membranes, expressing the human μ, δ, or κ opioid receptor, were incubated with 12 different concentrations of the compounds in the presence of receptor-specific radioligands at 25° C., in a final volume of 1 ml of 50 mM Tris-HCl, pH 7.5. Nonspecific binding was determined using 1 μM naloxone. Data are the mean value ±S.E.M. from three experiments, performed in triplicate.
# human κ opioid receptor = molecular target: T5, human κ opioid receptor (Homo sapiens, UniProt P41145); assay: biochemical; assay type: binding
# T5 construct: expressed in transfected cells; host or cells: Chinese hamster ovary (CHO) cells
# T5 sequence (P41145 whole entry): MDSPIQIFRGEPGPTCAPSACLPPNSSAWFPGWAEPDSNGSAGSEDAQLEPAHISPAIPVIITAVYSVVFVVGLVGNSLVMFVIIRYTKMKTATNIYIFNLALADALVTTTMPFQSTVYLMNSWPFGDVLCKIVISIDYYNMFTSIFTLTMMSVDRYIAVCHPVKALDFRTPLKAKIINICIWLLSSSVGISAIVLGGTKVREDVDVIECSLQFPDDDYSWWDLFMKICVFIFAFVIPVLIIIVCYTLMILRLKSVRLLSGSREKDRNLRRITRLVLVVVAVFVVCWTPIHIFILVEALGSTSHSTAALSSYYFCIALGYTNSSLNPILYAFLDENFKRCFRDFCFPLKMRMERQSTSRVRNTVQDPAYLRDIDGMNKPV
# mice = assay: mouse acetic acid writhing test (antinociceptive activity); assay type: in vivo
SMILES,Ki (δ opioid receptor; Ki [3H] Naltrindole (δ)),"Ki (κ opioid receptor; Ki [3H] U69,593 (κ)) [nM]",further results
CC1C2Cc3ccc(C(=NO)c4ccccc4)cc3C1(C)CCN2CC1CC1 (stereo not shown) [Example 18],180 ± 15 nM,7.2 ± 0.4,
CC1C2Cc3ccc(C4=NCCN4)cc3C1(C)CCN2CC1CC1 (stereo not shown) [Example 13],55 ± 5.1 nM,11 ± 0.69,
CC1C2Cc3ccc(C(=O)NCc4ccccc4)cc3C1(C)CCN2CC1CC1 (stereo not shown) [Example 9],140 ± 18 nM,78 ± 7.6,
"CC1C2Cc3ccc(C(N)=O)cc3C1(C)CCN2CC1CC1 (single isomer, unassigned) [Example 4b]",570 ± 50 nM,,
C[C@H]1[C@H]2Cc3ccc(C(=O)NO)cc3[C@]1(C)CCN2CC1CC1 (racemic) [Example 6],210 ± 40 nM,6.9 ± 0.61,
C[C@H]1[C@H]2Cc3ccc(C(=O)NCCCN(C)C)cc3[C@]1(C)CCN2CC1CC1 (racemic) [Example 12],3000 ± 230 nM,310 ± 64,
"CC1C2C(=O)c3ccc(O)cc3[C@@]1(C)CCN2CC1CC1 (mixture of isomers) [(±)-ketocyclazocine, Ketocyclazocine, reference compound]",,,"Ki (δ opioid receptor; [3H] Naltrindole (δ)): 20 ± 2.7 nM; Ki (κ opioid receptor; [3H] U69,593 (κ)): 1 ± 0.24 nM; Ki (human μ opioid receptor): 1.7 ± 0.21 nM; Ki (human δ opioid receptor): 130 ± 14 nM; Ki (human κ opioid receptor): 1 ± 0.019 nM"
"C[C@H]1C2Cc3ccc(C(N)=S)cc3[C@@]1(C)CCN2CC1CC1 (racemic) [Example 5, (±)-3-(Cyclopropylmethyl)-1,2,3,4,5,6-hexahydro-cis-6,11-dimethyl-2,6-methano-3-benzazocin-8-thiocarboxamide]",4 ± 0.48 nM,0.67 ± 0.01,
CC1C2Cc3ccc(C(=O)NN)cc3C1(C)CCN2CC1CC1 (stereo not shown) [Example 7],,19 ± 1.4,
C[C@H]1[C@H]2C(=O)c3ccc(C(N)=O)cc3[C@]1(C)CCN2CC1CC1 (relative stereo) [Example 23],,,"Ki (δ opioid receptor; [3H] Naltrindole (δ)): 20 ± 2.3 nM; Ki (κ opioid receptor; [3H] U69,593 (κ)): 1.8 ± 0.1 nM"
CC1C2C(=O)c3ccc(C#N)cc3C1(C)CCN2CC1CC1 (stereo not shown) [Example 22],,,"Ki (δ opioid receptor; [3H] Naltrindole (δ)): 3400 ± 410 nM; Ki (κ opioid receptor; [3H] U69,593 (κ)): 59 ± 0.77 nM"
"C[C@H]1C2Cc3ccc(C(N)=O)cc3[C@@]1(C)CCN2CC1CC1 (racemic) [Example 4, (±)-3-(Cyclopropylmethyl)-1,2,3,4,5,6-hexahydro-cis-6,11-dimethyl-2,6-methano-3-benzazocin-8-carboxamide]",8.3 nM and 4.9 nM,,"duration of action (antinociception, mouse writhing test) (mice; 1.0 mg/kg i.p.): 15 h; ED50 in the mouse acetic acid writhing test (mice; administered i.c.v.): 0.21 nmol"
"CC1C2Cc3ccc(NC=O)cc3C1(C)CCN2CC1CC1 (single isomer, unassigned) [Example 19a]",9.8 ± 0.28 nM,0.49 ± 0.012,
CNC(=O)c1ccc2c(c1)C1(C)CCN(CC3CC3)C(C2)C1C (stereo not shown) [Example 8],63 ± 4.1 nM,2.6 ± 0.19,
CCC12CCN(CC3CC3)C(C(=O)c3ccc(NC=O)cc31)C2C (stereo not shown) [Example 40],,,"Ki (δ opioid receptor; read-out: [3H] Naltrindole (δ)): 52 ± 3.4 nM; Ki (κ opioid receptor; read-out: [3H] U69,593 (κ)): 1.2 ± 0.11 nM"
N#Cc1ccc2c(c1O)[C@]13CCN(CC4CCC4)[C@H](C2)[C@]1(O)CCC(=O)C3 [Example 43],,,Ki (human μ opioid receptor): 0.35 ± 0.092 nM; Ki (human δ opioid receptor): 82 ± 24 nM; Ki (human κ opioid receptor): 2.6 ± 0.21 nM
C[C@H]1[C@H]2Cc3ccc(CN)cc3[C@]1(C)CCN2C[C@@H]1CCCO1 [Example 29],,,"Ki (δ opioid receptor; [3H] Naltrindole (δ)): 300 ± 27 nM; Ki (κ opioid receptor; [3H] U69,593 (κ)): 18 ± 1.9 nM"
"CC1C2Cc3ccc(C(N)=O)cc3C1(C)CCN2CC1CCCO1 (single isomer, unassigned) [Example 28]",,,"Ki (δ opioid receptor; [3H] Naltrindole (δ)): 34 ± 0.1 nM; Ki (κ opioid receptor; [3H] U69,593 (κ)): 2.8 ± 0.24 nM"
"COC(=O)c1ccc2c(c1)[C@@]1(C)CCN(CC3CC3)C(C2)[C@@H]1C (racemic) [Example 3, (±)-3-(Cyclopropylmethyl)-1,2,3,4,5,6,-hexahydro-cis-6,11-dimethyl-2,6-methano-3-benzazocin-8-carboxylic acid methyl ester]",59 ± 2.1 nM,2 ± 0.21,
COc1ccc(CNC(=O)c2ccc3c(c2)[C@]2(C)CCN(CC4CC4)[C@H](C3)[C@@H]2C)cc1 (racemic) [Example 10],150 ± 17 nM,110 ± 3.1,
C[C@H]1[C@H]2Cc3ccc(NS(C)(=O)=O)cc3[C@]1(C)CCN2CC1CC1 (racemic) [Example 21],780 ± 170 nM,21 ± 1.5,
"CC1C2Cc3ccc(C(N)=O)cc3C1(C)CCN2CC1CCCO1 (single isomer, unassigned) [Example 26]",,,"Ki (δ opioid receptor; [3H] Naltrindole (δ)): 2 ± 0.15 nM; Ki (κ opioid receptor; [3H] U69,593 (κ)): 0.089 ± 0.004 nM"
"CC1[C@@H]2Cc3ccc(C(=N)NO)cc3[C@@]1(C)CCN2CC1CC1 (mixture of isomers) [Example 14, (±)-3-(Cyclopropylmethyl)-1,2,3,4,5,6-hexahydro-N-hydroxy-cis-6,11-dimethyl-2,6-methano-3-benzazocin-8-carboxamidine]",16 ± 0.67 nM,0.9 ± 0.15,
